Laboratory results taken from patent US20250339391A1, “METHODS FOR EFFECTIVE MANAGEMENT OF PAIN” (South Rampart Pharma, Inc., priority 2024, published 2025).
“Also recorded” adds a separate entry of the source. Read-outs that look alike come from different tables or passages of the source.

Columns and labels:
[1] = test system: CD1 (young male and female) or C57BL/6 (aged male) mice; assay: Acetic acid-induced abdominal writhing visceral pain assay; assay type: in vivo, mouse; details: for analgesia in acetic acid-induced writhing assay: 100 mg/kg, all cohorts; for antinociception in acetic acid writhing: 32 and 100 mg/kg PO, 0.4% acetic acid ip
Description: In this model of visceral pain, abdominal contraction (writhing) in which contraction of the abdominal muscles and stretching of the hind limbs is induced in mice in response to an ip injection of 0.4% acetic acid at a dose of 10 mL/kg 25 min after drug administration is assessed. Specifically, the number of writhes is counted for 10 min beginning 5 min after acetic acid injection. […] CD1 (young male and female) or C57BL/6 (aged male) mice were used. For the abdominal writhing assays, we used n=35 aged male mice, n=70 young male mice, and n=70 young female mice.

[2] = test system: CD1 (young male and female) or C57BL/6 (aged male) mice; assay: Cold tail flick somatic pain assay; assay type: in vivo, mouse; details: for analgesia in cold tail-flick assay: 100 mg/kg, all cohorts; for tail withdrawal time (latency) to cold stimulation: 32 and 100 mg/kg PO, 4 °C water
Description: Half of the tail was immersed in ice-cold water maintained at 4° C. For the tail-flick assays, we used n=70 aged male mice, n=90 young male mice, and n=120 young female mice. Based on the availability of mice at the time of the experiments, different numbers of animals were assigned in different cohorts of experimental animals. Tail flick assay experiments were conducted on an open bench in a dedicated room at the LSUHSC New Orleans Neuroscience Center of Excellence vivarium. Mice were allowed to acclimate to the laboratory environment for 1 h prior to testing. To restrain the mice for the test, disposable plastic 50 mL screw-capped conical centrifuge tubes were cut at the tip to create a 0.5 cm opening to allow the mice to breathe freely. Another 0.5 cm opening was cut into the cap to allow access of the tail to the water bath. A 500 mL glass beaker was filled with 450 mL of ice-cold distilled water maintained at 4° C. with the addition of ice and determined with a glass thermometer. Mice were held over the opening of the water bath, and their tails submerged approximately halfway into the water. The nociceptive threshold was taken as the latency until the mice flicked their tail tip or removed the tail. The time from immersion to the attempted tail tip removal was measured to 1/10th of a sec with a digital laboratory timer. To minimize damage to the tail, a 60-sec cut-off was utilized. […] Injections were at doses of 32 mg/kg and 100 mg/kg. 30 min post-drug administration tail-flick/withdrawal latency was measured.

[3] = test system: AM404; assay: LC-MS/MS quantification of AM404 production in periaqueductal gray; assay type: in vivo; details: rat, 32 mg/kg IP, 30 min, with CFA or vehicle
Description: Deuterated compound D10-SRP-001 was synthesized by Olon Ricerca Bioscience (Concord, OH), and purity was determined to be >99.9% by HPLC. This was used as pure analytical standard for detection of SRP-001 using an LC-MS/MS method. Similarly, pure analytical standard of AM404 (10 ng/mL) obtained from Cayman Chemical (Ann Arbor, MI) was used to characterize the full fragmentation pattern of AM404. […] Thirty min post-injection, the animals were sacrificed (same as in the CFA/von Frey model), their brains harvested, and the midbrain periaqueductal gray (PAG) region excised. SRP-001 or AM404 were extracted from the PAG using a liquid-liquid extraction method using 1:1 MeOH:H2O for LC-MS/MS and were loaded onto a liquid chromatography-tandem mass spectrophotometer for analysis. The mass spectrophotometer was operated in multiple reaction monitoring (MRM) mode using positive ion electrospray. D10-SRP-001 was detected by monitoring the m/z transition 416→186. AM404 was detected by monitoring the m/z transition 396→287.

[4] = test system: CD-1 male mice; assay: LPS fever induction antipyresis assay; assay type: in vivo, mouse; details: LPS 100 μg/kg ip, drug 75 mg/kg po, 2 h post drug
Description: Antipyresis experiments were carried out with n=60 CD-1 male mice weighing between 45-50 g. All mice were kept in a 12-h day/12-h night cycle with free access to food and water ad libitum. After habituating and acclimating the mice for a week, each mouse was briefly anesthetized for 1 min with 1% isoflurane and implanted subcutaneously a transmitter probe that records core body temperature—Implantable Programmable Temperature Transponder (IPTT-300) by Bio Medic Data Systems (BMDS), DE, USA. The mice were allowed to recover for at least one week from the surgery before any recordings were made and observed in their home cages prior to pyrogen challenge for inducing fever. Temperatures were recorded using the BMDS DAS-8027-IUS data reading system.
All mice were fasted overnight (15 h) with free access to water ad libitum prior to the pyrogen challenge. For the induction of fever, LPS from E. coli (100 μg/kg, 0111:B4) (MilliporeSigma, Billerica, MA, USA) was used. Mice received either LPS in 0.9% saline (sterile) (vehicle) or just 0.9% saline as an intraperitoneal (ip) injection.
Drug injection/concentration: All drugs and vehicle (10% DMSO: 10% labrasol:80% PEG400) were administered by oral gavage, PO dosing. Each dosing volume was ˜0.3-0.4 mL per mouse. […] We chose this dose to record antipyretic effect in a low dose that doesn't cause hypothermia in mice.

[5] = test system: NAPQI; assay: LC-MS/MS identification of serum NAPQI and novel benzoquinoimine; assay type: in vivo, mouse; details: CD-1 mice, 600 mg/kg, IP or per os
Description: […] (NAPQI) was extracted from the serum by adding 3 volumes of ethyl-acetate to 1 volume of serum and storing them on ice for 30 min, followed by centrifugation at 3000 g for 30 min. Afterward, the supernatant was transferred into mass spectrometry vials and dried under N2 gas. The serum was then washed with another 3 volumes of ethyl-acetate, and the supernatant was added back to the same mass spectrometry vial, followed by evaporation under a stream of N2 gas. The sample was re-suspended with 50 μl of 1:1 MeOH:H2O for LC-MS/MS experimentation. The mass spectrophotometer was operated in multiple reaction monitoring (MRM) mode using positive ion electrospray. NAPQI was detected by monitoring the m/z transition 150.3→108.1. Pure NAPQI analytical standard (10 ng/mL) obtained from Cayman Chemical (Ann Arbor, MI) was used to characterize the full fragmentation pattern of NAPQI and determine the likely fragments.

[6] = test system: CD-1 male mice; details: for mortality by 72 hours: n=10
Description: CD-1 male mice obtained from Charles River Laboratories underwent a one-week acclimation period. They were housed under a 12-hour day/night cycle, with unrestricted access to food and water. Before experimentation, mice were fasted for 15 hours. […] Each treatment group consisted of 10 mice. Post-dosing, the mice were monitored at 6-hour intervals over 72 hours for signs of becoming moribund. An investigator blinded to the treatment groups conducted the moribund state assessment.

[7] = 992 oral gavage (ApAP 150 mg/kg, SRP-001 402 mg/kg)

| SMILES | analgesia in acetic acid-induced writhing assay [1] | antinociception in acetic acid writhing [1] | analgesia in cold tail-flick assay [2] | tail withdrawal time (latency) to cold stimulation [2] | AM404 production in the PAG [3] | antipyresis [4] | serum NAPQI formation [5] | mortality by 72 hours [6, 7] | mortality by 72 hours ([6]; 1,984 oral gavage (ApAP 300 mg/kg)) | mortality by 72 hours ([6]; 3,969 oral gavage (ApAP 600 mg/kg)) | mortality reached within 72 hours (Kaplan-Meier) ([6]; highest dose) [%] | equimolar (μmol/kg) ED50 / dose-response curve relative to ApAP ([1]; acetic acid writhing) | equimolar (μmol/kg) ED50 / dose-response curve relative to ApAP ([2]; tail flick) | AM404 production in the PAG ([3]; 32 mg/kg) |
| --- | --- | --- | --- | --- | --- | --- | --- | --- | --- | --- | --- | --- | --- | --- |
| CC(=O)Nc1ccc(O)cc1 [ApAP, acetaminophen] | significant analgesia | experienced antinociception | significant analgesia | increased tail withdrawal time (latency) | diminished | comparable antipyresis | a NAPQI peak is seen; also recorded: significantly enhanced | absence of mortality | 1/10 | 3/10 | 70 |  |  |  |
| CCN(CC)C(=O)c1ccccc1S(=O)(=O)NCC(=O)Nc1ccc(O)cc1 [SRP-001, N,N-diethyl-2-[[2-(4-hydroxyanilino)-2-oxo-ethyl]sulfamoyl]benzamide] | significant analgesia | experienced antinociception | significant analgesia | increased tail withdrawal time (latency) |  | comparable antipyresis | lack of formation of the toxic quinonimine metabolite NAPQI; also recorded: lack of production of NAPQI | absence of mortality |  |  |  | comparable or improved ED50; also recorded: shifted to the left; also recorded: clear shift to the left | comparable or improved ED50; also recorded: clear shift to the left | highest AM404 production; also recorded: produces more AM404 than ApAP |
